Results: PubChem BioAssay (NCI)
Several values for one entry are separate records, joined by “and”; a condition that tells them apart may be missing. Equal values may be shown once.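 Protocol summary: plate cells (96-well), add compound at 5 concentrations, incubate 48 h, interpolate endpoints linearly. GI50 marks 50% less growth. At the TGI there is no net growth.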

Key:
Assay in all cases: inhibition of tumour cell growth, NCI panel, 48 h
HCC-2998 colon = tested on: HCC-2998 colon
HS 578T breast = tested on: HS 578T breast
NCI-H460 lung = tested on: NCI-H460 lung
HT29 colon = tested on: HT29 colon
M14 melanoma = tested on: M14 melanoma
HCT-15 colon = tested on: HCT-15 colon
K-562 leukemia = tested on: K-562 leukemia
LOX IMVI melanoma = tested on: LOX IMVI melanoma
IGROV1 ovarian = tested on: IGROV1 ovarian
SK-MEL-5 melanoma = tested on: SK-MEL-5 melanoma

Row | SMILES | TGI (HCC-2998 colon) [µM] | TGI (HS 578T breast) [µM] | TGI (NCI-H460 lung) [µM] | TGI (HT29 colon) [µM] | TGI (M14 melanoma) [µM] | TGI (HCT-15 colon) [µM] | TGI (K-562 leukemia) [µM] | TGI (LOX IMVI melanoma) [µM] | TGI (IGROV1 ovarian) [µM] | TGI (SK-MEL-5 melanoma) [µM] | GI50 (HCC-2998 colon) | GI50 (HCT-15 colon) | GI50 (K-562 leukemia) | GI50 (LOX IMVI melanoma) | GI50 (IGROV1 ovarian) | GI50 (SK-MEL-5 melanoma)
1 | N#Cc1c(-c2ccccc2)c2c([nH]c1=O)-c1cc([N+](=O)[O-])ccc1CCC2 | 48.2 | > 100 | > 100 | > 100 | 93.4 | 61 | > 100 | 81.1 | > 100 | 76 | – | – | – | – | – | –
2 | O=C(CC(C(=O)c1ccco1)c1ccco1)c1ccco1 (centres undefined) | > 100 | > 100 | > 100 | > 100 | > 100 | – | > 100 | > 100 | > 100 | > 100 | – | – | – | – | – | –
3 | S=C1NC2=C(CSC/C2=C\c2ccccc2)C(c2ccccc2)N1 (centres undefined) | > 100 | – | > 100 | > 100 | > 100 | > 100 | > 100 | > 100 | > 100 | 24.5 | – | – | – | – | – | –
4 | C=C1C(=O)C23C(O)CC4C5(C)CCCC4(C(O)OC5)C2C(OC(C)=O)CC1C3O (centres undefined) | 32.4 | – | 15.9 | 17.6 | 15.1 | 27.4 | 11.7 | 29.2 | 39.2 | 31.1 | – | – | – | – | – | –
5 | C=CCN1C(=O)/C(=C/c2ccc(C)cc2)N=C1SC1OC(COC(C)=O)C(OC(C)=O)C(OC(C)=O)C1OC(C)=O (centres undefined) | > 100 | – | > 100 | > 100 | > 100 | > 100 | > 100 | > 100 | > 100 | > 100 | > 100 µM and 35.6 µM | > 100 µM and 29.7 µM | > 73.9 µM and 29.9 µM | > 100 µM and 31.7 µM | > 100 µM and 24.7 µM | 11.2 µM and 32.9 µM
6 | CC(C)C(N)C(=O)NC(CCC(=O)NCCCCC(N)C(=O)NCCCNc1ccc([N+](=O)[O-])c2[nH]c3ccccc3c(=O)c12)C(N)=O (centres undefined) | > 100 | – | > 100 | – | > 100 | > 100 | > 100 | 80.2 | – | > 100 | – | – | – | – | – | –
7 | O=C(O)CCCCCCCCC(=O)O | > 500 | – | > 500 | > 500 | – | > 500 | > 500 | > 500 | > 500 | > 500 | – | – | – | – | – | –
8 | Cc1c(-c2ccccc2)[nH]n(C2=NCCN2)c1=O | – | > 100 | > 100 | > 100 | > 100 | > 100 | > 100 | > 100 | > 100 | > 100 | – | – | – | – | – | –
9 | CC1=NNC(=O)C1C1CC(c2c[nH]c3ccccc23)=NN=C1Cl (centres undefined) | – | > 100 | > 100 | > 100 | > 100 | > 100 | 88.6 | > 100 | > 100 | > 100 | – | – | – | – | – | –
10 | O=C(NN1C(=O)CSC1c1cccc(F)c1)c1ccncc1 (centres undefined) | > 100 | – | – | > 100 | > 100 | > 100 | > 100 | > 100 | > 100 | > 100 | – | – | – | – | – | –
11 | c1ccc([P+](CCCCCCCC[P+](c2ccccc2)(c2ccccc2)c2ccccc2)(c2ccccc2)c2ccccc2)cc1 | > 100 | > 100 | > 48.1 | > 50 | > 100 | > 100 | > 100 | 32.9 | > 23.9 | 40.7 | – | – | – | – | – | –
12 | COc1cc(C2c3cc4c(cc3[C@@H](Nc3ccc5c(c3)OCO5)C3COC(=O)[C@H]23)OCO4)cc(OC)c1O (some centres undefined) | 3.42 | – | 1.57 | 6.07 | – | 2.15 | 9.74 | 3.4 | 35 | 2.64 | – | – | – | – | – | –
13 | CC1(C)N=C2C(=O)c3c([nH]c4ccccc34)[C@]3(C)CCC1CC23 (some centres undefined) | > 6.25 | > 6.25 | > 6.25 | > 6.25 | – | > 6.25 | > 6.25 | > 6.25 | > 6.25 | > 6.25 | – | – | – | – | – | –
14 | COC(=O)[C@H](Cc1ccccc1)NC(=O)N(CCC#N)CCN(C(=O)N[C@@H](Cc1ccccc1)C(=O)OC)c1ccccc1 | > 100 | > 100 | – | – | 55.1 | > 100 | – | 41.3 | 42.9 | 46.2 | – | – | – | – | – | –
15 | CN(C)CCCNC(=O)c1c(O)c2ccccc2n(C)c1=O | > 100 | > 100 | > 100 | > 100 | – | > 100 | > 100 | > 100 | > 100 | > 100 | – | – | – | – | – | –
16 | CN1N=C(c2ccncc2)OC1c1ccccc1F (centres undefined) | > 100 | > 100 | > 100 | > 100 | > 100 | > 100 | > 100 | > 100 | > 100 | > 100 | – | – | – | – | – | –
17 | COc1cc(C(O)c2ccc3c(c2)OCO3)cc(OC)c1OC (centres undefined) | > 100 | > 100 | > 100 | > 100 | > 100 | > 100 | > 100 | > 100 | > 100 | > 100 | – | – | – | – | – | –
18 | COC(=O)C1(O)C(c2ccccc2)=NC2(C)CCCC21 (centres undefined) | > 100 | > 100 | > 100 | > 100 | > 100 | > 100 | > 100 | > 100 | > 100 | > 100 | – | – | – | – | – | –
19 | CC(=O)n1nc(-c2ccccc2)n(/N=C/c2ccc([N+](=O)[O-])o2)c1=O | 19.1 | 38 | 15.9 | 21.8 | 4.08 | 15.4 | 37 | 23.2 | 37.4 | 14.8 | – | – | – | – | – | –
20 | Cc1cc(C)c(/C=C(\C(=C/c2c(C)cc(C)cc2C)[N+](=O)[O-])[N+](=O)[O-])c(C)c1 | > 100 | – | > 100 | > 100 | > 100 | – | > 100 | > 100 | > 100 | > 100 | – | – | – | – | – | –
21 | COc1ccc(/C=N/n2c(C)nc3c(sc(=S)n3-c3ccccc3)c2=O)cc1 | > 100 | – | > 100 | > 100 | – | – | 81.2 | – | > 100 | > 100 | – | – | – | – | – | –
22 | C/C(=C\CO)CC/C=C(\C)CNc1ccc([N+](=O)[O-])cc1 | – | 71.6 | > 100 | > 100 | > 100 | > 100 | 66.5 | > 100 | > 100 | 25.6 | – | – | – | – | – | –
